According to the kinase profiling compilation of Christmann-Franck et al. (2016):

Columns and labels:
Test in all cases: KINOMEscan competition binding
Conditions in all cases: compound 10.0 µM
[1] = molecular target: SGK1 (human) (UniProt O00141)
[2] = molecular target: DMPK (human) (UniProt Q09013)
[3] = molecular target: CAMK2A (human) (UniProt Q9UQM7)
[4] = molecular target: PIM2 (human) (UniProt Q9P1W9)
[5] = molecular target: CDK9 (human) (UniProt P50750)
[6] = molecular target: CDK7 (human) (UniProt P50613)
[7] = molecular target: PIP5K1A (human) (UniProt Q99755)
[8] = molecular target: FGFR3 (human) (UniProt P22607)
[9] = molecular target: STK16 (human) (UniProt O75716)
[10] = molecular target: ANKK1 (human) (UniProt Q8NFD2)
[11] = molecular target: NEK1 (human) (UniProt Q96PY6)
[12] = molecular target: MAPK3 (human) (UniProt P27361)
[13] = molecular target: KIT (human) (UniProt P10721)
[14] = molecular target: CHEK1 (human) (UniProt O14757)
[15] = molecular target: TSSK1B (human) (UniProt Q9BXA7)
[16] = molecular target: KDR (human) (UniProt P35968)
[17] = molecular target: PIK3CG (human) (UniProt P48736)
[18] = molecular target: JAK3 JH1 catalytic (human) (UniProt P52333)
[19] = molecular target: MAPK11 (human) (UniProt Q15759)
[20] = molecular target: TEK (human) (UniProt Q02763)
[21] = molecular target: AXL (human) (UniProt P30530)
[22] = molecular target: SRC (human) (UniProt P12931)
[23] = molecular target: CDK19 (human) (UniProt Q9BWU1)
[24] = molecular target: SRPK3 (human) (UniProt Q9UPE1)
[25] = molecular target: AURKB (human) (UniProt Q96GD4)
[26] = molecular target: IGF1R (human) (UniProt P08069)
[27] = molecular target: CSNK1A1 (human) (UniProt P48729)
[28] = molecular target: CDK14 (human) (UniProt O94921)
[29] = molecular target: ALK (human) (UniProt Q9UM73)
[30] = molecular target: RET (human) (UniProt P07949)
[31] = molecular target: AURKA (human) (UniProt O14965)
[32] = molecular target: ZAP70 (human) (UniProt P43403)
[33] = molecular target: MKNK2 (human) (UniProt Q9HBH9)
[34] = molecular target: MAP3K14 (human) (UniProt Q99558)
[35] = molecular target: DYRK1B (human) (UniProt Q9Y463)
[36] = molecular target: CDK3 (human) (UniProt Q00526)
[37] = molecular target: ACVR1B (human) (UniProt P36896)
[38] = molecular target: SIK1 (human) (UniProt P57059)
[39] = molecular target: CDK2 (human) (UniProt P24941)
[40] = molecular target: MAP4K1 (human) (UniProt Q92918)
[41] = molecular target: MAP3K13 (human) (UniProt O43283)

Chain of CSNK1A1 (human) (P48729 whole entry, looked up): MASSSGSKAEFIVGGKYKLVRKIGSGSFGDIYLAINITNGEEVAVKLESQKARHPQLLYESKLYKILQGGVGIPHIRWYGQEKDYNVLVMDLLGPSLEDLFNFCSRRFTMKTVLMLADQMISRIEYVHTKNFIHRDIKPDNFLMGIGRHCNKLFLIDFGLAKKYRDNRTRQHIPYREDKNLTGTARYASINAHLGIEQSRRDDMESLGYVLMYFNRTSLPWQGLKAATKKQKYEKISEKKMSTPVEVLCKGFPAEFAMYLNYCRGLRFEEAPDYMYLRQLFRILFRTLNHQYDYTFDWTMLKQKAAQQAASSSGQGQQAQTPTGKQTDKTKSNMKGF
Chain of AURKA (human) (O14965 whole entry, looked up): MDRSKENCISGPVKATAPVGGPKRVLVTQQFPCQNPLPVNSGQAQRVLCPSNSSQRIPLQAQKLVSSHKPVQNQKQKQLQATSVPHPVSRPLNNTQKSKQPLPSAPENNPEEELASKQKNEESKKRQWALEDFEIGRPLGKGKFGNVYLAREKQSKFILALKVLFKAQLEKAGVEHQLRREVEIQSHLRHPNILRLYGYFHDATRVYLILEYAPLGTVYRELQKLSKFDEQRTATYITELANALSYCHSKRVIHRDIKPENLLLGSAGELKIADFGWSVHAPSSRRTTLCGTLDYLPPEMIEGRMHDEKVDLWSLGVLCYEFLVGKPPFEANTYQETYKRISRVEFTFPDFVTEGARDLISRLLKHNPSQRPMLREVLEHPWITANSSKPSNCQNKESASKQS
Chain of IGF1R (human) (P08069 whole entry, looked up): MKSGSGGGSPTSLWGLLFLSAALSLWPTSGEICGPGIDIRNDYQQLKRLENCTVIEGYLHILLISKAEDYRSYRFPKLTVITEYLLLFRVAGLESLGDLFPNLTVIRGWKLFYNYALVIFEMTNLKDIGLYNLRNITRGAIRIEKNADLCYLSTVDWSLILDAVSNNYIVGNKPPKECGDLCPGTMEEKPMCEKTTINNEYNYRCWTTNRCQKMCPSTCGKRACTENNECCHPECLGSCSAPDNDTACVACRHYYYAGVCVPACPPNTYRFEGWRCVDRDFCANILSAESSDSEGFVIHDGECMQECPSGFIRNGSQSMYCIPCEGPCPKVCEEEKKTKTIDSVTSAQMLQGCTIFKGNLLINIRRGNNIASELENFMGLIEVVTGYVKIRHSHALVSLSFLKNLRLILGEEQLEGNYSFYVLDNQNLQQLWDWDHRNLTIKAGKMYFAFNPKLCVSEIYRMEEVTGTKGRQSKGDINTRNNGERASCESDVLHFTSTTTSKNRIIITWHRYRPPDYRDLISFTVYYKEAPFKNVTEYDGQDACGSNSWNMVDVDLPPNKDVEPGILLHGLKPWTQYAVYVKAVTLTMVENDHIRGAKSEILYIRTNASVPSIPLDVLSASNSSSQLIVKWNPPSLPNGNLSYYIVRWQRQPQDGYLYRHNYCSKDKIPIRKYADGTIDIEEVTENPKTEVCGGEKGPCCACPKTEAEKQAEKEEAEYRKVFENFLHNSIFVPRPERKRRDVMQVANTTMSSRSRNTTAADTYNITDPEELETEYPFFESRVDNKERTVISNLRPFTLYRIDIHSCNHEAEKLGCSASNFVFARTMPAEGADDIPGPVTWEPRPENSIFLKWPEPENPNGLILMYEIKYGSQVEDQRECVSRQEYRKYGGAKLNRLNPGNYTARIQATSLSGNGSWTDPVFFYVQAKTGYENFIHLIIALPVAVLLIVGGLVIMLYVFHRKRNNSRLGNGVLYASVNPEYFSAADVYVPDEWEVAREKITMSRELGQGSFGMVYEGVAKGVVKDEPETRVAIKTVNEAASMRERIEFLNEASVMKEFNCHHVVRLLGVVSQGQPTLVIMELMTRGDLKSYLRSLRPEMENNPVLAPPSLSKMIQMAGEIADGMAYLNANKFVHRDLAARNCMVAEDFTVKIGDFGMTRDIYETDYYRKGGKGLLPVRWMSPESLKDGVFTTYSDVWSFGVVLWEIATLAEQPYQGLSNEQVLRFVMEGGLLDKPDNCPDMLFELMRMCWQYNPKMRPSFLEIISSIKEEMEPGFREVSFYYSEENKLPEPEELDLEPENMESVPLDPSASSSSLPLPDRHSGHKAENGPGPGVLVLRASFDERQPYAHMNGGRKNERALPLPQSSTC
Chain of ANKK1 (human) (Q8NFD2 whole entry, looked up): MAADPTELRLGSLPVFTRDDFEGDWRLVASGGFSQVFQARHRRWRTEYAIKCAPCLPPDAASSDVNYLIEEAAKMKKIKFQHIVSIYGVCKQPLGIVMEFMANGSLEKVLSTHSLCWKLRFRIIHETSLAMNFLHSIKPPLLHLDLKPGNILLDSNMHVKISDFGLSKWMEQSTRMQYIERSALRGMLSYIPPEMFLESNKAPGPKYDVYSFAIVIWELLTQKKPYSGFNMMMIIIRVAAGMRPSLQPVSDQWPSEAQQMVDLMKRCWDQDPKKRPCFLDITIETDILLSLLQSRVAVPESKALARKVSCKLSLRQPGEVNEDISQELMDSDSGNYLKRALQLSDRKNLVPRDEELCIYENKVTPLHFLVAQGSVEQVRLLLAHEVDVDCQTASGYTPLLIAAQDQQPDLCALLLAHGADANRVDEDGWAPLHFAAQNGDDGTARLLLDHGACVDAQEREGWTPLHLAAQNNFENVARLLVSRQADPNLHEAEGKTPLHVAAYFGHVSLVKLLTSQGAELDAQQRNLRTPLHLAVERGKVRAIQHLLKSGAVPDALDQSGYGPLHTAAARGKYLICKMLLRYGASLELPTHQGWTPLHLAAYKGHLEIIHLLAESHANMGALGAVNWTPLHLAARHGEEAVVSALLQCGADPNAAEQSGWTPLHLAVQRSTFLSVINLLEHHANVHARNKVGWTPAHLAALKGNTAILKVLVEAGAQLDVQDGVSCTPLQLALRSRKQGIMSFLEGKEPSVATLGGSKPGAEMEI
Chain of CDK7 (human) (P50613 whole entry, looked up): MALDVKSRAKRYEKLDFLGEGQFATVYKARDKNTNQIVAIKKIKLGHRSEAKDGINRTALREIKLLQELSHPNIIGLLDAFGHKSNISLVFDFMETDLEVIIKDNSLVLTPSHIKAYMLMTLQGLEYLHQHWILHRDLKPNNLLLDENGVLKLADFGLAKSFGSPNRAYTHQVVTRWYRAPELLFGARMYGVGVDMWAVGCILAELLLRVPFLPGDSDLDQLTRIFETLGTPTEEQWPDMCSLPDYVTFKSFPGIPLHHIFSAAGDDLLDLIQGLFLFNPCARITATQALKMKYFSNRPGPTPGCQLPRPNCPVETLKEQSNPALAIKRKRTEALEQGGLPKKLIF
Chain of PIM2 (human) (Q9P1W9 whole entry, looked up): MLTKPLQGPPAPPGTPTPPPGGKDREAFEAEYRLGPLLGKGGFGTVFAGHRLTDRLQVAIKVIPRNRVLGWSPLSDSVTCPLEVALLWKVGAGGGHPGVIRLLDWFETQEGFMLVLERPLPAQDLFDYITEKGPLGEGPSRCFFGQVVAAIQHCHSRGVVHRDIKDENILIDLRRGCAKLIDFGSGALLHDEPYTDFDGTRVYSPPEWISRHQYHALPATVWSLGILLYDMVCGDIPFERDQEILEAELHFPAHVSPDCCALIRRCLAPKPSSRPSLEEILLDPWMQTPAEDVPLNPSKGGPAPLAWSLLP
Chain of MAP4K1 (human) (Q92918 whole entry, looked up): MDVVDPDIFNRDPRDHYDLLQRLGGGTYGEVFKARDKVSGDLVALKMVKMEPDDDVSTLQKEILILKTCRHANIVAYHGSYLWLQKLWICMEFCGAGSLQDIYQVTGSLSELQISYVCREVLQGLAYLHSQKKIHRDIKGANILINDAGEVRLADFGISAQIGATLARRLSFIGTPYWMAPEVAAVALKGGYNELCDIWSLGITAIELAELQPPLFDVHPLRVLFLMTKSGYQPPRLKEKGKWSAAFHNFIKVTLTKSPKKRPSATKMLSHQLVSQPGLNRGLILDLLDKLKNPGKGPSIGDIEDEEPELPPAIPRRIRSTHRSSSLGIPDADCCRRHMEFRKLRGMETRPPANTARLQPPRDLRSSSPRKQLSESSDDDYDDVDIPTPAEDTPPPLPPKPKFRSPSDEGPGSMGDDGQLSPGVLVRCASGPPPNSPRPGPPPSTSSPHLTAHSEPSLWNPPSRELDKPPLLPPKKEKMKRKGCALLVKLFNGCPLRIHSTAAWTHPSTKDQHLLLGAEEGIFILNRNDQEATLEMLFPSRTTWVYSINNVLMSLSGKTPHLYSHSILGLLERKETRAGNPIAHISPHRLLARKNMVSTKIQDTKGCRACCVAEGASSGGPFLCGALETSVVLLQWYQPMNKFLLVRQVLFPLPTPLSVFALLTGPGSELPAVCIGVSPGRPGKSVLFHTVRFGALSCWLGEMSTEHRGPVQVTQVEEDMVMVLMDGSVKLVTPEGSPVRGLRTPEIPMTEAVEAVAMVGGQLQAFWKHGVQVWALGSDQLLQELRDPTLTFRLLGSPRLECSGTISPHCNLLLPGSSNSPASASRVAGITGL
Chain of DYRK1B (human) (Q9Y463 whole entry, looked up): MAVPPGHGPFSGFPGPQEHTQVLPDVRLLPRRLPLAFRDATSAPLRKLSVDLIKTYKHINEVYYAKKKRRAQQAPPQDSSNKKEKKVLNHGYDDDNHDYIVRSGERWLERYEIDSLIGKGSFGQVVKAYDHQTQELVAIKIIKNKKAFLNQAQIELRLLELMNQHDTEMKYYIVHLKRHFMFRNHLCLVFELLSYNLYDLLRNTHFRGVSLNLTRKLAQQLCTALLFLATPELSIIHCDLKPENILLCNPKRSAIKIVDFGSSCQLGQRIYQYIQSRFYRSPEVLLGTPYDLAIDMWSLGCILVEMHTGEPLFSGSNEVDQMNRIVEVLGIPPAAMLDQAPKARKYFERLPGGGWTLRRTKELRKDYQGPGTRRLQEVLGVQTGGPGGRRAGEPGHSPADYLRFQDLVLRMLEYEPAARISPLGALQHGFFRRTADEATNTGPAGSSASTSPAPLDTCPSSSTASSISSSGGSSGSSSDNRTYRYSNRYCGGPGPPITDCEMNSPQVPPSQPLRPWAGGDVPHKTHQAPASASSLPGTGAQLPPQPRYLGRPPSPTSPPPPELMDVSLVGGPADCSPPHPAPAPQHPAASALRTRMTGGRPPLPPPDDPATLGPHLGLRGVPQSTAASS

SMILES: O=C(Nc1ccc(Oc2ncnc3[nH]ncc23)cc1)Nc1ccc(Cl)c(C(F)(F)F)c1
- kinase still bound, per cent of control [1]: 88%
- kinase still bound, per cent of control [2]: 100%
- kinase still bound, per cent of control [3]: 90%
- kinase still bound, per cent of control [4]: 100%
- kinase still bound, per cent of control [5]: 56%
- kinase still bound, per cent of control [6]: 11%
- kinase still bound, per cent of control [7]: 73%
- kinase still bound, per cent of control [8]: 80%
- kinase still bound, per cent of control [9]: 100%
- kinase still bound, per cent of control [10]: 89%
- kinase still bound, per cent of control [11]: 85%
- kinase still bound, per cent of control [12]: 100%
- kinase still bound, per cent of control [13]: 0.05%
- kinase still bound, per cent of control [14]: 100%
- kinase still bound, per cent of control [15]: 86%
- kinase still bound, per cent of control [16]: 0%
- kinase still bound, per cent of control [17]: 98%
- kinase still bound, per cent of control [18]: 75%
- kinase still bound, per cent of control [19]: 1.2%
- kinase still bound, per cent of control [20]: 25%
- kinase still bound, per cent of control [21]: 25%
- kinase still bound, per cent of control [22]: 70%
- kinase still bound, per cent of control [23]: 0.35%
- kinase still bound, per cent of control [24]: 100%
- kinase still bound, per cent of control [25]: 4.7%
- kinase still bound, per cent of control [26]: 100%
- kinase still bound, per cent of control [27]: 100%
- kinase still bound, per cent of control [28]: 23%
- kinase still bound, per cent of control [29]: 57%
- kinase still bound, per cent of control [30]: 0%
- kinase still bound, per cent of control [31]: 23%
- kinase still bound, per cent of control [32]: 100%
- kinase still bound, per cent of control [33]: 0.05%
- kinase still bound, per cent of control [34]: 97%
- kinase still bound, per cent of control [35]: 96%
- kinase still bound, per cent of control [36]: 44%
- kinase still bound, per cent of control [37]: 100%
- kinase still bound, per cent of control [38]: 100%
- kinase still bound, per cent of control [39]: 64%
- kinase still bound, per cent of control [40]: 61%
- kinase still bound, per cent of control [41]: 92%
